From the NIST ThermoML archive (doi:10.1016/j.fluid.2012.07.032) come the findings set out here.

± gives the expanded uncertainty stated by the source.

The conditions of data set [1]: 101.33 kPa, Liquid, Vibrating tube method.
Data set [2] is described as follows: refractive index (Na D-line) (dimensionless). As to conditions: 101.33 kPa, Liquid, Standard Abbe refractometry.

A word on the mass density: it is the mass of a sample divided by its volume. As a reminder, the refractive index is the speed of light in vacuum divided by its phase velocity in the sample. As to `CCCOC(C)=O` [propyl ethanoate], the mass density turned out to be 894.325 ± 0.082 kg/m3 in data set [1] (288.2 K), 877.529 ± 0.089 kg/m3 in data set [1] (303.2 K) and 860.512 ± 0.095 kg/m3 in data set [1] (318.2 K). The refractive index came out at 1.3866 ± 0.0004 in data set [2] (288.2 K), 1.3792 ± 0.0004 in data set [2] (303.2 K) and 1.3717 ± 0.0004 in data set [2] (318.2 K).
As for `CCOC(C)=O` [ethyl acetate], the mass density is given as 906.89 ± 0.11 kg/m3 in data set [1] (288.2 K), 888.196 ± 0.12 kg/m3 in data set [1] (303.2 K) and 869.522 ± 0.12 kg/m3 in data set [1] (318.2 K). In addition, the results for the refractive index in data set [2] (288.2 K), in data set [2] (303.2 K) and in data set [2] (318.2 K) were 1.3749 ± 0.0004, 1.3672 ± 0.0004 and 1.3594 ± 0.0004, respectively.
As to `O=Cc1ccco1` [2-furaldehyde], the mass density in data set [1] (288.2 K) is listed as 1165.24 ± 0.37 kg/m3; in data set [1] (303.2 K), 1149.77 ± 0.35 kg/m3; in data set [1] (318.2 K), 1133.83 ± 0.34 kg/m3. Also, the values for the refractive index in data set [2] (288.2 K), in data set [2] (303.2 K) and in data set [2] (318.2 K) were 1.528 ± 0.0004, 1.5206 ± 0.0004 and 1.5133 ± 0.0004, respectively.
Take `CCCCO` [butan-1-ol]: the mass density in data set [1] (288.2 K) is on record as 813.82 ± 0.14 kg/m3; in data set [1] (303.2 K), 802.407 ± 0.14 kg/m3; in data set [1] (318.2 K), 790.724 ± 0.15 kg/m3. For the same compound, the refractive index in data set [2] (288.2 K) is 1.4013 ± 0.0004; in data set [2] (303.2 K), 1.3952 ± 0.0004; in data set [2] (318.2 K), 1.3892 ± 0.0004.
For `O` [water], the refractive index in data set [2] (288.2 K) amounted to 1.3334 ± 0.0004; in data set [2] (303.2 K), 1.3319 ± 0.0004; in data set [2] (318.2 K), 1.3298 ± 0.0004.
